Measured values taken from patent US20060100431A1, “Biologically active compounds” (Amura Therapeutics Limited, priority 2002, published 2006).
Like-named read-outs stand apart in the source and are kept apart here. Blank lines part the entries; values can stand above or below the molecule they belong to.

Legend:
Assay type in all cases: biochemical
Wild-type cruzipain = Wild-type cruzipain (Trypanosoma cruzi, UniProt P25779); assay: Trypanosoma cruzi cruzipain peptidase activity assay (Ki)
How it was run: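 Native cruzipain from T. cruzi Dm28 epimastigotes, 2.5 nM, in 100 mM sodium phosphate pH 6.75 with 1 mM EDTA and 10 mM L-cysteine, 25 °C, DMSO <1%. Rates taken from continuous fluorogenic substrate read; Ki by regression assuming reversible pure-competitive inhibition.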

human cathepsin L = biological target: T1, human cathepsin L (Homo sapiens, UniProt P07711); assay: Cathepsin L peptidase activity assay (Ki)
T1 construct: purchased CN Biosciences
How it was run: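 Run at 25±1° C with DMSO under 1%: buffer was 10 mM BTP pH 6.5 containing 1 mM EDTA, 1 mM CaCl2 and 5 mM 2-mercaptoethanol. Enzyme (1 nM cathepsin L) was added last to start hydrolysis of Ac-Phe-Arg-AMC held at KM^app (~20 μM), followed kinetically by fluorescence at 365/450 nm.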

CPB2.8ΔCTE = biological target: T2, CPB2.8ΔCTE (Leishmania mexicana, UniProt P36400); assay: Leishmania mexicana cysteine protease B (CPB) peptidase activity assay (Ki)
T2 construct: Wild-type recombinant CPB without the C-terminal extention (i.e. CPB2.8ΔCTE); Dr. Jeremy Mottram (Wellcome Centre for Molecular Parasitology, University of Glasgow)
How it was run: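 Apparent Ki was derived by regression of activity against inhibitor concentration, assuming pure-competitive reversible binding. Reaction: 0.25 nM CPB lacking the C-terminal extension, pH 5.5 acetate buffer (1 mM EDTA, 200 mM NaCl, 10 mM DTT), 25 °C, followed by continuous substrate fluorescence.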

[1] = Table 5, read-out: Ki Cruzipain
[2] = read-out: Ki, inhibitors of cruzain and cruzipains
[3] = Table 5, read-out: Ki Human Cathepsin L
[4] = Ki, inhibitors of Leismania mexicana CPB protease
[5] = read-out: Ki, inhibitors of cathepsin L

T2 sequence (P36400 126-343, stated change not applied): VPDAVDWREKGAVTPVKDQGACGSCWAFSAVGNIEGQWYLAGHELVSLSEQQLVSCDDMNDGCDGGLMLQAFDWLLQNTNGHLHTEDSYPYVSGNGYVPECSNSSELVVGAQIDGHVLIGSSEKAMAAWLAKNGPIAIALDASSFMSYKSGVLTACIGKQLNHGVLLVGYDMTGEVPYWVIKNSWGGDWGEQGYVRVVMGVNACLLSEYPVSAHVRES
Wild-type cruzipain, sequence (P25779 whole entry): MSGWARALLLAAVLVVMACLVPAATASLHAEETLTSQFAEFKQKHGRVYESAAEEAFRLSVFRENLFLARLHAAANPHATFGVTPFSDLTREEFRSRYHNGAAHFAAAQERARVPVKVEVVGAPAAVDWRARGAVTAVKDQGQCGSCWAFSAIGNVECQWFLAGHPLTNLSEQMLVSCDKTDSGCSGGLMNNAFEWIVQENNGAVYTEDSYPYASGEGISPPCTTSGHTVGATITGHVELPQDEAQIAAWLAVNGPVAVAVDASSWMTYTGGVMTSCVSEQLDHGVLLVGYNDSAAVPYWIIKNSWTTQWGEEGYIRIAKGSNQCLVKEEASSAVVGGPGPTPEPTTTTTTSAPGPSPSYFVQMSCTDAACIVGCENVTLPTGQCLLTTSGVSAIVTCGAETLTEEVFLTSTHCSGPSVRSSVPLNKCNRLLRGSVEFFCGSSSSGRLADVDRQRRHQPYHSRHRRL
T1 sequence (P07711 114-333): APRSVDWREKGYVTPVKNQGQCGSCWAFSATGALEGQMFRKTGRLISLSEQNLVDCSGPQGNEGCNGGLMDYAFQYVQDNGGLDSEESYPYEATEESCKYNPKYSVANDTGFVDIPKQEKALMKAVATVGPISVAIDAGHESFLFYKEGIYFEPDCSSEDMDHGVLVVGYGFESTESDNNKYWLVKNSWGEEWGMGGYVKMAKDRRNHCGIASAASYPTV

SMILES: CC(C)C[C@H](NC(=O)c1ccc(-c2cccs2)cc1)C(=O)N1CC[C@@H]2[C@H]1C(=O)CN2C(=O)c1ccccc1 [Example 2, (3aR,6aS)-N-[(1S)-1-(4-Benzoyl-6-oxo-hexahydro-pyrrolo[3,2-b]pyrrole-1-carbonyl)-3-methyl-butyl]-4-thiophen-2-yl-benzamide]
- Ki (Wild-type cruzipain; [1]): > 0.3 µM
- Ki (Wild-type cruzipain; [2]): < 5 µM
- Ki (human cathepsin L; [3]): > 3 µM
- Ki (CPB2.8ΔCTE; Ki CPB, Table 5): > 0.2 µM
- Ki (CPB2.8ΔCTE; [4]): < 5 µM

SMILES: CC(C)C[C@H](NC(=O)c1ccc(C(C)(C)C)cc1)C(=O)N1NC[C@@H]2[C@H]1C(=O)CN2C(=O)c1ccccc1 [Example 249a, (3aR,6aS)-N-[(1S)-1-(4-benzoyl-6-oxo-hexahydropyrrolo[3,2-c]pyrazole-1-carbonyl)-3-methylbutyl]-4-tert-butylbenzamide]
- Ki (Wild-type cruzipain; [2]): < 5 µM
- Ki (human cathepsin L; [5]): < 5 µM
- Ki (CPB2.8ΔCTE; [4]): < 5 µM

SMILES: CC(=O)N[C@@H](CC(C)C)C(=O)N1CC(=O)[C@@H]2[C@H]1CCN2C(=O)[C@H](CC(C)C)NC(=O)c1ccc(N(C)C)cc1 [Example 151, (3aR,6aS)-N-{(1S)-1-[4-((2S)-2-Acetylamino-4-methyl-pentanoyl)-6-oxo-hexahydro-pyrrolo[3,2-b]pyrrole-1-carbonyl]-3-methyl-butyl}-4-dimethylamino-benzamide]
- Ki (Wild-type cruzipain; [2]): < 5 µM
- Ki (human cathepsin L; [5]): < 5 µM
- Ki (CPB2.8ΔCTE; [4]): < 5 µM

SMILES: CC(C)C[C@H](NC(=O)c1ccc(N2CCNCC2)cc1)C(=O)N1CC[C@@H]2[C@H]1C(=O)CN2C(=O)c1ccccc1 [Example 194, (3aR,6aS)-N-[(1S)-1-(4-Benzoyl-6-oxo-hexahydro-pyrrolo[3,2-b]pyrrole-1-carbonyl)-3-methyl-butyl]-4-piperazin-1-yl-benzamide]
- Ki (Wild-type cruzipain; [2]): < 5 µM
- Ki (human cathepsin L; [5]): < 5 µM
- Ki (CPB2.8ΔCTE; [4]): < 5 µM

SMILES: CC(C)C[C@H](NC(=O)c1ccc(N)cc1)C(=O)N1NC[C@@H]2[C@H]1C(=O)CN2C(=O)c1cccc(S(C)(=O)=O)c1 [Example 249c, (3aR,6aS)-4-amino-N-{(1S)-1-[4-(3-methanesulfonylbenzoyl)-6-oxo-hexahydropyrrolo [3,2-c]pyrazole-1-carbonyl]-3-methylbutyl}benzamide]
- Ki (Wild-type cruzipain; [2]): < 5 µM
- Ki (human cathepsin L; [5]): < 5 µM
- Ki (CPB2.8ΔCTE; [4]): < 5 µM

- Ki (Wild-type cruzipain; [2]): < 5 µM
- Ki (human cathepsin L; [5]): < 5 µM
SMILES: CC(C)C[C@H](NC(=O)c1cc2ccccc2s1)C(=O)N1CC[C@@H]2[C@H]1C(=O)CN2C(=O)c1ccccc1 [Example 7, (3aR,6aS)-Benzo[b]thiophene-2-carboxylic acid [(1S)-1-(4-benzoyl-6-oxo-hexahydro-pyrrolo[3,2-b]pyrrole-1-carbonyl)-3-methyl-butyl]-amide]

SMILES: CC(C)C[C@H](NC(=O)c1ccc(-n2cccn2)cc1)C(=O)N1CC[C@@H]2[C@H]1C(=O)CN2C(=O)c1ccccc1 [Example 91, (3aR,6aS)-N-[(1S)-1-(4-Benzoyl-6-oxo-hexahydro-pyrrolo[3,2-b]pyrrole-1-carbonyl)-3-methyl-butyl]-4-pyrazol-1-yl-benzamide]
- Ki (Wild-type cruzipain; [2]): < 5 µM
- Ki (human cathepsin L; [5]): < 5 µM
- Ki (CPB2.8ΔCTE; [4]): < 5 µM

SMILES: O=C(N[C@@H](CC1CCCCC1)C(=O)N1CC[C@@H]2[C@H]1C(=O)CN2C(=O)c1ccccc1)c1ccsc1 [Example 250, (3aR,6aS)-Thiophene-3-carboxylic acid [(1S)-2-(4-benzoyl-6-oxo-hexahydro-pyrrolo[3,2-b]pyrrole-1-yl)-1-cyclohexylmethyl-2-oxo-ethyl]-amide]
- Ki (Wild-type cruzipain; [1]): > 5 µM
- Ki (human cathepsin L; [3]): > 1 µM
- Ki (human cathepsin L; [5]): < 5 µM
- Ki (CPB2.8ΔCTE; Ki CPB, Table 5): > 5 µM

SMILES: CC(C)C[C@H](NC(=O)c1ccc(N(C)C)cc1)C(=O)N1CC[C@@H]2[C@H]1C(=O)CN2C(=O)c1ccccc1 [Example 14, (3aR,6aS)-N-[(1S)-1-(4-Benzoyl-6-oxo-hexahydro-pyrrolo[3,2-b]pyrrole-1-carbonyl)-3-methyl-butyl]-4-dimethylamino-benzamide]
- Ki (Wild-type cruzipain; [2]): < 5 µM
- Ki (human cathepsin L; [5]): < 5 µM
- Ki (CPB2.8ΔCTE; [4]): < 5 µM

SMILES: CC(C)C[C@H](NC(=O)c1ccc(N(C)C)cc1)C(=O)N1CC[C@@H]2[C@H]1C(=O)CN2C(=O)[C@@H](NC(=O)OCc1ccccc1)C(C)C [Example 158, (3aS,6aR)-((S)-1-{4-[(2S)-2-(4-Dimethylamino-benzoylamino)-4-methyl-pentanoyl]-3-oxo-hexahydro-pyrrolo[3,2-b]pyrrole-1-carbonyl}-2-methyl-propyl)-carbamic acid benzyl ester]
- Ki (Wild-type cruzipain; [2]): < 5 µM
- Ki (human cathepsin L; [5]): < 5 µM
- Ki (CPB2.8ΔCTE; [4]): < 5 µM

SMILES: CC(C)C[C@H](NC(=O)c1ccc(N(C)C)cc1)C(=O)N1CC[C@@H]2[C@H]1C(=O)CN2C(=O)c1csc2ccccc12 [Example 103, (3aR,6aS)-N-{(1S)-1-[4-(Benzo[b]thiophene-3-carbonyl)-6-oxo-hexahydro-pyrrolo[3,2-b]pyrrole-1-carbonyl]-3-methyl-butyl}-4-dimethylamino-benzamide]
- Ki (Wild-type cruzipain; [2]): < 5 µM
- Ki (human cathepsin L; [5]): < 5 µM
- Ki (CPB2.8ΔCTE; [4]): < 5 µM

SMILES: CC(C)C[C@H](NC(=O)c1cccc(N2CCNCC2)c1)C(=O)N1CC[C@@H]2[C@H]1C(=O)CN2C(=O)c1ccccc1 [Example 247, (3aR,6aS)-N-[(1S)-1-(4-Benzoyl-6-oxo-hexahydro-pyrrolo[3,2-b]pyrrole-1-carbonyl)-3-methyl-butyl]-3-piperazin-1-yl-benzamide]
- Ki (Wild-type cruzipain; [2]): < 5 µM
- Ki (human cathepsin L; [5]): < 5 µM
- Ki (CPB2.8ΔCTE; [4]): < 5 µM

SMILES: CC(C)(C)c1ccc(C(=O)N[C@@H](Cc2ccc(O)cc2)C(=O)N2CC[C@@H]3[C@H]2C(=O)CN3C(=O)c2ccccc2)cc1 [Example 346, (3aR,6aS)-N-[(1S)-2-(4-Benzoyl-6-oxo-hexahydro-pyrrolo[3,2-b]pyrrol-1-yl)-1-(4-hydroxybenzyl)-2-oxo-ethyl]-4-tert-butyl-benzamide]
- Ki (Wild-type cruzipain; [1]): < 0.2 µM
- Ki (human cathepsin L; [3]): > 3 µM
- Ki (human cathepsin L; [5]): < 5 µM
- Ki (CPB2.8ΔCTE; Ki CPB, Table 5): > 5 µM

SMILES: CC(C)C[C@H](NC(=O)c1cccc(N(C)C)c1)C(=O)N1CC[C@@H]2[C@H]1C(=O)CN2C(=O)c1cccc(S(C)(=O)=O)c1 [Example 59, (3aR,6aS)-3-Dimethylamino-N-{(1S)-1-[4-(3-methanesulfonyl-benzoyl)-6-oxo-hexahydro-pyrrolo[3,2-b]pyrrole-1-carbonyl]-3-methyl-butyl}-benzamide]
- Ki (Wild-type cruzipain; [2]): < 5 µM
- Ki (human cathepsin L; [5]): < 5 µM
- Ki (CPB2.8ΔCTE; [4]): < 5 µM

SMILES: CC(C)C[C@H](NC(=O)c1ccc2c(c1)CCCN2)C(=O)N1CC[C@@H]2[C@H]1C(=O)CN2C(=O)c1ccccc1 [Example 87, (3aR,6aS)-1,2,3,4-Tetrahydro-quinoline-6-carboxylic acid [(1S)-1-(4-benzoyl-6-oxo-hexahydro-pyrrolo[3,2-b]pyrrole-1-carbonyl)-3-methyl-butyl]-amide]
- Ki (Wild-type cruzipain; [2]): < 5 µM
- Ki (human cathepsin L; [5]): < 5 µM
- Ki (CPB2.8ΔCTE; [4]): < 5 µM

SMILES: CC(C)C[C@H](NC(=O)c1ccc2ncsc2c1)C(=O)N1CC[C@@H]2[C@H]1C(=O)CN2C(=O)c1ccccc1 [Example 90, (3aR,6aS)-Benzothiazole-6-carboxylic acid [(1S)-1-(4-benzoyl-6-oxo-hexahydro-pyrrolo[3,2-b]pyrrole-1-carbonyl)-3-methyl-butyl]-amide]
- Ki (Wild-type cruzipain; [2]): < 5 µM
- Ki (human cathepsin L; [5]): < 5 µM
- Ki (CPB2.8ΔCTE; [4]): < 5 µM

SMILES: O=C(N[C@@H](Cc1ccc(O)cc1)C(=O)N1CC[C@@H]2[C@H]1C(=O)CN2C(=O)c1ccccc1)c1cccc2ccccc12 [Example 296, (3aR,6aS)-Naphthalene-1-carboxylic acid [(1S)-2-(4-benzoyl-6-oxo-hexahydro-pyrrolo[3,2-b]pyrrole-1-yl)-1-(4-hydroxybenzyl)-2-oxo-ethyl]-amide]
- Ki (Wild-type cruzipain; [1]): > 1 µM
- Ki (Wild-type cruzipain; [2]): < 5 µM
- Ki (human cathepsin L; [3]): < 0.2 µM
- Ki (CPB2.8ΔCTE; Ki CPB, Table 5): > 5 µM

SMILES: CC(C)CC(NC(=O)c1ccc(N)cc1)C(=O)N1NC[C@@H]2[C@H]1C(=O)CN2C(=O)c1ccccc1 (stereo partly drawn) [Example 249b, (3aR,6aS)-4-amino-N-[1-(4-benzoyl-6-oxo-hexahydropyrrolo[3,2-c]pyrazole-1-carbonyl)-3-methylbutyl)benzamide]
- Ki (Wild-type cruzipain; [2]): < 5 µM
- Ki (human cathepsin L; [5]): < 5 µM
- Ki (CPB2.8ΔCTE; [4]): < 5 µM

SMILES: CC(C)C[C@H](NC(=O)c1ccc(OC(F)(F)F)cc1)C(=O)N1CC[C@@H]2[C@H]1C(=O)CN2C(=O)c1ccccc1 [Example 173, (3aR,6aS)-N-[(1S)-1-(4-Benzoyl-6-oxo-hexahydro-pyrrolo[3,2-b]pyrrole-1-carbonyl)-3-methyl-butyl]-4-trifluoromethoxy-benzamide]
- Ki (Wild-type cruzipain; [2]): < 5 µM
- Ki (human cathepsin L; [5]): < 5 µM
- Ki (CPB2.8ΔCTE; [4]): < 5 µM
